# Data taken from ChEMBL document CHEMBL2028040, “Malaria Box”.
# What was measured:
# [1] = MMV: Cytotoxicity against human fibroblasts (MRC-5) cells.; settings: MRC-5 cells (human fibroblasts)
# [2] = tested on: Plasmodium falciparum; assay: MMV: Inhibition of Plasmodium falciparum 3D7 at 5uM compound concentration.; assay type: functional
# [3] = tested on: Trypanosoma cruzi; assay: MMV: Inhibition of Trypanosoma cruzi (Tulahuen C4 LacZ) (Chagas in vitro).; assay type: functional, organism-based
# [4] = tested on: Trypanosoma brucei brucei; assay: MMV: Inhibition of Trypanosoma brucei brucei (Squib 427) (HAT in vitro).; assay type: functional, organism-based
# [5] = tested on: Trypanosoma brucei rhodesiense; assay: MMV: Inhibition of Trypanosoma brucei rhodesiense (STIB 900) (HAT in vitro).; assay type: functional, organism-based
# [6] = tested on: Leishmania infantum; assay: MMV: Inhibition of Leishmania infantum (MHOM/MA/BE/67) in vitro.; assay type: functional, organism-based
IC50 [3] [µM],IC50 [4] [µM],IC50 [5] [µM],IC50 [6] [µM],Structure (SMILES),IC50 [1] [µM],inhibition at 5 µM [2] [%]
> 32,> 32,> 32,> 32,O=C(Nc1ccccc1O)c1ccc(Oc2cccc(C(=O)Nc3ccccc3O)c2)cc1,> 32,91
5.21,4,3.09,10.2,O=C(Nc1ccc(Br)cc1)Nc1cccc(Cl)c1,> 32,94
14.6,16.2,10.9,16.2,COc1ccc(C(=O)Nc2ccc3nc(N4CCCCC4)cc(C)c3c2)cc1OC,16.4,
> 32,> 32,> 32,> 32,COc1cc2cc(C(=O)Nc3ccccc3)c(N)nc2cc1OC,> 32,
> 32,> 32,> 32,> 32,CC(=O)c1ccc(NC(=O)CSc2nc(-c3ccccc3Cl)ns2)cc1,> 32,
> 32,> 32,> 32,> 32,CCC(=O)Nc1nnc(Cc2ccc(OC)c(OC)c2)s1,> 32,47
15.3,> 32,25.3,> 32,FC(F)(F)c1cccc(Nc2nc(-c3ccccc3)nc3ncccc23)c1,> 32,74
6.59,4.78,3.22,6.35,CCN1CCN(c2cc(C)c3cc(NC(=O)c4ccc(OC)c(OC)c4)ccc3n2)CC1,5.46,
15,16.5,5,16,COc1ccc(-c2cn3c(C(=O)Nc4ccccc4Cl)c(-c4ccccc4)c4c3n2CCCC4)cc1,> 32,80
> 32,> 32,29.2,16,Cn1c(C(=O)c2cccc3ccccc23)nc2ccccc21,> 32,89
> 32,16.1,8.65,> 32,Oc1ccc2ccccc2c1CNc1nc2ccccc2[nH]1,> 32,83
16.1,15.6,16,16,Oc1ccc(Cl)cc1CNc1nc2ccccc2[nH]1,15.9,95
> 32,> 32,> 32,16.2,COc1cccc(C(=O)Nc2ccc(-c3nc4ccccc4[nH]3)cc2)c1,> 32,83
> 32,> 32,> 32,> 32,COc1ccc(C(=O)Nc2ccc(Cl)cc2C(=O)Nc2ccncc2)cc1,> 32,93
> 32,> 32,> 32,> 32,O=C(Nc1ccc(-c2nc3cc(NC(=O)c4ccc(Cl)cc4)ccc3[nH]2)cc1)c1ccc(Cl)cc1,> 32,
> 32,> 32,> 32,16.2,CCOc1cccc(C(=O)Nc2ccc(-c3nc4ccccc4[nH]3)cc2)c1,> 32,
4.13,32,3.82,> 32,CCOC(=O)c1cnc2ccc(OC)cc2c1Nc1ccc(N2CCN(C)CC2)cc1,13.9,
4.15,1.02,1.65,0.846,COc1ccc(C(=O)C(CCC(CNC(C)(C)C)C(=O)c2ccc(OC)cc2)CNC(C)(C)C)cc1 (stereo not drawn),10.3,85
> 32,11,15.4,> 32,Cc1c(C)n(Cc2ccc(F)cc2)c2ccc(C(=O)NCc3ccco3)cc12,> 32,52
> 32,> 32,> 32,> 32,CCN(CC)c1ccc(NC(=O)c2cccs2)cc1,> 32,88
> 32,> 32,> 32,> 32,CCOc1ccccc1NC(=O)CN1CCN(C(=O)c2ccco2)CC1,> 32,83
> 32,16.5,16.2,> 32,CCN(CC)CCCNc1ccnc2cc3ccccc3cc12,> 32,90
> 32,> 32,> 32,> 32,COc1ccc(-c2nonc2NC(=O)c2cccc(Cl)c2)cc1OC,> 32,
11.8,16.4,3.14,> 32,CC(C)(C)C(=O)Nc1ccc(C(=O)Nc2cccc(-c3nc4ccccc4[nH]3)c2)cc1,17.9,91

IC50 [3] [µM],IC50 [4] [µM],IC50 [5] [µM],IC50 [6] [µM],Structure (SMILES),IC50 [1] [µM],inhibition at 5 µM [2] [%]
> 32,> 32,> 32,> 32,COc1ccc(-c2nonc2NC(=O)c2cccc(C)c2)cc1OC,> 32,95
> 32,> 32,> 32,16.2,Cc1ccc(-c2nc3ccccc3o2)cc1NCc1cc(Cc2ccccc2)ccc1O,> 32,64
16.3,> 32,30.3,> 32,O=C1CC(O)(C(F)(F)C(F)(F)F)Oc2ccccc21 (stereo not drawn),18.1,95
0.343,0.657,0.7,16.2,O=C(Nc1cccc(C(F)(F)F)c1)c1cc(Cl)ccc1O,0.241,93
> 32,> 32,> 32,> 32,CC(C)(C)c1ccc(C(=O)Nc2nc3ccccc3s2)cc1,> 32,81
0.165,27,16,19,CCOc1cccc2sc(N(Cc3cccnc3)C(=O)C3CCCCC3)nc12,> 32,94
> 32,> 32,19.7,> 32,COc1ccccc1CNC(=O)C1c2ccccc2C(=O)N(CC(C)C)C1c1cccs1 (stereo not drawn),> 32,97
13.7,14.3,0.679,16.2,CCN(CC)c1cc(C)c2cc(NC(=O)c3cccc(OC)c3)ccc2n1,15.3,
4.26,3.85,4,4.76,COc1ccc(C(O)(CCC(C)C)C(CN2CCOCC2)c2ccc(Cl)cc2)cc1 (stereo not drawn),10.8,97
6.29,5.81,4.03,> 32,Cc1ccc(NC(=O)Nc2cccc(Cl)c2)cc1F,> 32,52
0.963,1.15,1.05,> 32,Oc1c(CN2CCN(c3ccccc3F)CC2)cc(Br)c2cccnc12,5.58,91
> 32,12.8,8,> 32,Oc1c2c(nc3cc(-c4ccccc4)nn13)CCCC2,> 32,77
2.32,14.6,16,> 32,COc1ccc(C)c2sc(N(Cc3cccnc3)C(=O)c3ccc(C#N)cc3)nc12,> 32,91
4.78,16.2,12.5,4.32,CCCCCCC(O)(c1ccc(F)cc1)C(CN1CCOCC1)c1ccccc1 (stereo not drawn),> 32,93
19.3,> 32,22.8,> 32,Cc1ccc(C)c(-c2csc(Nc3ccc(C)c(C)c3)n2)c1,> 32,94
> 32,> 32,> 32,> 32,CCOc1ccc(CCNC(=O)c2cccs2)cc1OCC,> 32,95
> 32,> 32,> 32,> 32,O=c1c2c([nH]c3ccccc13)CCCC2,> 32,82
17,13.3,3.51,10.1,CN(C)c1ccc(N=Cc2ccc(N3CCOCC3)cc2)cc1,> 32,96
> 32,> 32,> 32,> 32,CCCCOc1ccc(C(=O)Nc2cc(C)on2)cc1,> 32,73
13,14.9,4.95,10.1,CCOC(=O)c1cnc2ccc(OC)cc2c1NCc1ccccc1,> 32,87
> 32,> 32,17.9,> 32,CCN1CCN(c2c(C(=O)c3ccccc3)cnc3cc(OC)c(OC)cc23)CC1,> 32,59
> 32,> 32,> 32,> 32,CCOC(=O)c1c[nH]c2c(CC)cccc2c1=O,> 32,87
> 32,> 32,16.3,> 32,CCCCN(CCCC)S(=O)(=O)c1ccc(NC(=O)c2ccco2)cc1,> 32,78
